Some test systems named below: SW-620 colon; NCI-H522 lung; CAKI-1 renal; SN12C renal; SNB-78 CNS; M14 melanoma; HCC-2998 colon; HOP-92 NSCLC; NCI-H226 lung; OVCAR-8 ovarian; ACHN renal; SR leukemia; HCT-15 colon; SK-MEL-2 melanoma; DLD-1 colon; NCI/ADR-RES ovarian; A498 renal; MDA-MB-435; DU-145 prostate; PC-3 prostate.
Holding throughout (assay): NCI tumour cell line growth inhibition, 48 h

We go through 6 molecules from PubChem BioAssay (NCI).

Structures are written as SMILES.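 Tested at 5 concentrations; 48 h exposure; 96-well plates; endpoints linearly interpolated, else capped at highest concentration. The concentration for full growth arrest is given as TGI.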 A value given as a limit tells only on which side of the number the result lay.

On to `CN1Cc2ccccc2C2(COc3ccccc3C2=O)C1` (stereo not drawn), for which the TGI in the assay with SW-620 colon, in the assay with NCI-H522 lung, in the assay with CAKI-1 renal, with SN12C renal, with SNB-78 CNS and in the assay on M14 melanoma was > 100 µM throughout. Besides, the TGI was > 100 µM in the assay on HCC-2998 colon; 93.6 µM in the assay with HOP-92 NSCLC; > 100 µM in the assay with NCI-H226 lung; > 100 µM in the assay with OVCAR-8 ovarian; > 100 µM with ACHN renal; 87.8 µM in the assay with SR leukemia. The TGI with HCT-15 colon, in the assay with SK-MEL-2 melanoma and with DLD-1 colon was > 100 µM in each case.
Regarding `N/C(=N\N=C/c1c(O)cc(O)cc1O)NO`, the TGI in the assay on NCI/ADR-RES ovarian, in the assay with SW-620 colon, in the assay with NCI-H522 lung, in the assay on CAKI-1 renal, with SN12C renal and in the assay on SNB-78 CNS was > 100 µM in each case. Further, the TGI with HCC-2998 colon, in the assay with HOP-92 NSCLC, with NCI-H226 lung, in the assay with OVCAR-8 ovarian, with A498 renal and in the assay with HCT-15 colon was > 100 µM throughout. The TGI in the assay on SK-MEL-2 melanoma and in the assay on DLD-1 colon was > 100 µM throughout.
As to `Cc1ccc(N2Cc3c(ccc4ccccc34)OP2(=S)N2CCCC2)cc1` (stereo not drawn), the TGI in the assay on NCI/ADR-RES ovarian, with SW-620 colon, in the assay with NCI-H522 lung, in the assay on CAKI-1 renal, in the assay on SN12C renal and in the assay with SNB-78 CNS was > 100 µM throughout. The TGI with HCC-2998 colon, in the assay with HOP-92 NSCLC, with NCI-H226 lung, with OVCAR-8 ovarian, in the assay with A498 renal and in the assay with HCT-15 colon was > 100 µM each time. For the same molecule, the TGI with SK-MEL-2 melanoma and with DLD-1 colon was > 100 µM each time.
Take `Cc1cc(C)c(S(=O)(=O)N(CCCCCN)OCCCN)c(C)c1`: the TGI in the assay with NCI/ADR-RES ovarian stood at 34.3 µM; in the assay with MDA-MB-435 it was 34.9 µM; in the assay on SW-620 colon, 36.3 µM; with CAKI-1 renal, 31.2 µM; in the assay with SN12C renal it was 33.3 µM; with M14 melanoma it was 37 µM. Further, the TGI with HCC-2998 colon was 20 µM; in the assay with HOP-92 NSCLC, 31 µM; in the assay on NCI-H226 lung, 29.9 µM; in the assay with OVCAR-8 ovarian, 34.1 µM; in the assay on DU-145 prostate it was 31.2 µM; in the assay with ACHN renal, 33.6 µM. Moreover, the results for the TGI in the assay on PC-3 prostate, in the assay with SR leukemia and with SK-MEL-2 melanoma were 28.8 µM, 43.9 µM and 35.1 µM, respectively.
Take `COC1CCC(CO)OO1` (stereo not drawn): the TGI in the assay on NCI-H522 lung is 27.4 µM; in the assay with SNB-78 CNS, 66.9 µM; in the assay with M14 melanoma it was > 100 µM; with HOP-92 NSCLC it was > 100 µM; with ACHN renal it was > 100 µM; with A498 renal, 72.2 µM. For the same molecule, the TGI in the assay with SR leukemia and in the assay on SK-MEL-2 melanoma was > 100 µM in each case.
Regarding `CC(=O)c1c(-c2ccco2)c(C#N)c(=S)n(C2OC(CO)C(O)C(O)C2O)c1C` (stereo not drawn), the TGI in the assay on NCI/ADR-RES ovarian, with MDA-MB-435, in the assay with SW-620 colon, in the assay on CAKI-1 renal, with SN12C renal and in the assay with M14 melanoma was > 100 µM each time. Also, the TGI with OVCAR-8 ovarian, in the assay on DU-145 prostate, in the assay with ACHN renal, with PC-3 prostate, in the assay with SR leukemia and with HCT-15 colon was > 100 µM in each case.
